Consider one molecule from patent publication US20260070895A1, “CRYSTALLINE FORMS” (QUIMATRYX, S.L., priority 2022, published 2026).

Each structure is given as a SMILES string.

The test system of data set [1] is multiple sclerosis mice models. Particulars: two different multiple sclerosis mice models; cited from earlier work.
Data set [2] in a line: Pharmacokinetic properties. In kind it is in vivo. Particulars: compared with other histone deacetylase inhibitors.
Data set [3] has as its system mantle cell lymphoma, lung cancer and pancreatic cancer xenograft. Particulars: lung cancer and pancreatic cancer xenograft murine models; cited from earlier work.
Data set [4] can be described thus: Solubility and stability of QTX125 in aqueous solution (background). The class given is physicochemical.
A short description of data set [5]: Genotoxicity (clastogenicity, aneugenicity). Conditions: unlike other histone deacetylase inhibitors.
The target in the next data set is T1, HDAC 6 (Homo sapiens, UniProt Q9UBN7).
T1 sequence (Q9UBN7 1-1215): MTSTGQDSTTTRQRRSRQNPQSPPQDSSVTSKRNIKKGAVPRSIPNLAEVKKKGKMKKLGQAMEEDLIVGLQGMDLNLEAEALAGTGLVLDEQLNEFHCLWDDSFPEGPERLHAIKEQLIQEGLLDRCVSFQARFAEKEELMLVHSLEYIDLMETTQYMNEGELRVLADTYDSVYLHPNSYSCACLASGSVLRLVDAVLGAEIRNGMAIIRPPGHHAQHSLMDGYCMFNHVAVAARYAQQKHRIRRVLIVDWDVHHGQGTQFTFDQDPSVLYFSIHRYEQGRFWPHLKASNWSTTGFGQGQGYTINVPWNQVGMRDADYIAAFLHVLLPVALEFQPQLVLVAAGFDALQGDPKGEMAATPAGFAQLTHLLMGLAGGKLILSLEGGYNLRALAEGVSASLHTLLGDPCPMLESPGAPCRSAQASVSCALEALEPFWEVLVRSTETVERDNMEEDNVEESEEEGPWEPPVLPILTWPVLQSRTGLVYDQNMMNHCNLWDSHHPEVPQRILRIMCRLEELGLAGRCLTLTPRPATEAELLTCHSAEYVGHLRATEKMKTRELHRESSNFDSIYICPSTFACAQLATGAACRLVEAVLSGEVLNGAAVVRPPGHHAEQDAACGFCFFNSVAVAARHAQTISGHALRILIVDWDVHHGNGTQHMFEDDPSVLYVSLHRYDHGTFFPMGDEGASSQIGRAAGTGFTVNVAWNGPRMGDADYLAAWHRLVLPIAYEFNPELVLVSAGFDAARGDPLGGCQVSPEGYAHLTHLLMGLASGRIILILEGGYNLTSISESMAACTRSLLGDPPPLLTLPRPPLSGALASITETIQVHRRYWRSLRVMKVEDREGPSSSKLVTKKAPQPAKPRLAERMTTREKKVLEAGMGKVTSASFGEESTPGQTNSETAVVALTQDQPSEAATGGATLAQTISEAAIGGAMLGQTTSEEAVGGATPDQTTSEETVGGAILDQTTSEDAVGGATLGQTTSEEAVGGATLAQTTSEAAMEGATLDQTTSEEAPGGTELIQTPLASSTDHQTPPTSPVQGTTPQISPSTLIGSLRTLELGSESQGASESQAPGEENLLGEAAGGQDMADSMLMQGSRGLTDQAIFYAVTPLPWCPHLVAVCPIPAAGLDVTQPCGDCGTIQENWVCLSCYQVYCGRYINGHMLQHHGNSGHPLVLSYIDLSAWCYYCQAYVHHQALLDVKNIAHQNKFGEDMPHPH
Conditions: cited from earlier work.

For data set [6] the following is noted: hydroxamic acids such as QTX125; cited from earlier work.

Take `O=C(NO)c1ccc(CNC(=O)c2[nH]c(-c3ccc(O)cc3)cc2-c2ccoc2)cc1` [QTX125, 3-(3-furyl)-N-{4-[(hydroxyamino)carbonyl]benzyl}-5-(4-hydroxyphenyl)-1H-pyrrole-2-carboxamide]: the “efficacy in multiple sclerosis models” value in data set [1] is reported as “high efficacy”. For the same molecule, the “pharmacokinetic properties: half-lives and distribution volumes” value in data set [2] was “higher half-lives and distribution volumes”. Also, the antitumoral efficacy entry in data set [3] was “high antitumoral efficacy”. For the same molecule, in data set [4], the “physical and chemical stability in solution” value is “physical and chemical instability”. Besides, the “genotoxicity, in particular clastogenicity or aneugenicity” value in data set [5] is recorded as “no evidence of genotoxicity”. In addition, the “HDAC 6 inhibition (in words)” value on HDAC 6 is “highly selective and highly potent”. The solubility in water entry in data set [6] is listed as “very low solubility”.
